Data set [1] has as its system 4T1-T^VM cells. Description: in vitro VM tube assay on Matrigel. It is filed as cell-based, mouse. Conditions: 4T1-T^VM cells treated directly, plated on Matrigel. From the text: FIG. 1G are gel photographs showing the results of an in vitro Matrigel assay for VM. Only VM clones 4T1-E and 4T1-T can form tube structures when plated on Matrigel. All data from ref. 7.
Both SerpinE2 and SLPI are secreted proteins but whether their secretion is necessary for their effects on VM is unknown. To ascertain the importance of intra- vs extracellular localization of SerpinE2 and SLPI, we perform knockdown add-back experiments in which we suppress SerpinE2 or SLPI in 4T1-T^VM cells using shRNAs directed against the 3′ UTR followed by re-expression of HALO-tagged coding sequence constructs (FIG. 2) in which the signal peptide (a necessary signal for secretion) is either present or absent^8. These engineered cell lines then are tested for their ability to form VM tubes in vitro in the Matrigel assay and their ability to form VM channels and metastases in vivo by transplantation into the mammary fat-pad of Balb/C mice.
To ascertain whether regulation of VM underlies these effects of IRE1 on metastasis we turned to the in vitro VM tube assay. Inhibition of IRE1 with two independent small molecule inhibitors of its RNAse activity enhanced VM tubulogenesis while activation of IRE1 with Tunicamycin suppressed VM (FIGS. 4E and F). […]

The subject of data set [2] is 4T1-T^VM cells. Description: plating remaining treated cells in 2D (cell viability). It is filed as cell-based, mouse. The following applies: remaining treated cells plated in 2D. From the text: To ascertain whether regulation of VM underlies these effects of IRE1 on metastasis we turned to the in vitro VM tube assay. Inhibition of IRE1 with two independent small molecule inhibitors of its RNAse activity enhanced VM tubulogenesis while activation of IRE1 with Tunicamycin suppressed VM (FIGS. 4E and F).

For data set [3] the following is noted: low-dose, IRE1 activation in vivo; cited from earlier work.
Data set [4] has as its system 4T1-T^VM cells. The data set is described as follows: polyA+ RNA-Seq of treated cells with GO analysis and GSEA. In kind it is cell-based, mouse. From the text: Y axis is log^2 fold change mRNA levels and X axis is the negative log^10 of the corrected p-value. Red points highlight significant changes with a p value below 0.05.
To assess the role of VM as a resistance mechanism in this clinical cohort, we examined whether this Bev resistance gene signature was altered by perturbations that influence VM (FIGS. 9A-9C). […] Thus, co-targeting of VM may enhance response to anti-angiogenic cancer therapies.

The conditions of data set [5]: cancer patients; cited from earlier work.

“Also recorded” adds a separate entry of the source.

Regarding Tunicamycin, the “VM tubulogenesis (tube formation)” value in the data set on 4T1-T^VM cells [1] is “suppressed VM; also recorded: profoundly suppresses VM tubulogenesis”. Further, the “effects on cell viability” value with 4T1-T^VM cells [2] is listed as “ruled out any demonstrable effects on cell viability”. The toxicity in vivo result in data set [3] is given as “without apparent toxicity”. Further, in the data set on 4T1-T^VM cells [4] (DESeq corrected p value<0.05), the “GO analysis of genes significantly down-regulated by Tunicamycin/IRE1 activation and up-regulated by IRE1 inhibition” value was “enriched for regulators of vasculature development and secreted ECM/ECM-affiliated genes”; the “GO analysis of genes significantly up-regulated by Tunicamycin/IRE1 activation and down-regulated by IRE1 inhibition” value was “enrichment of terms related to ER stress”. In addition, the “Bev resistance gene signature (GSEA)” value in the data set with 4T1-T^VM cells [4] (bevacizumab resistance genes of Mehta et al. in IRE1-regulated expression data) is on record as “globally down-regulated; also recorded: profoundly suppresses”. The “VM gene signature (GSEA)” value in the data set with 4T1-T^VM cells [4] (signature from VM clones vs all other clones) was “profoundly suppresses”.
On to “Avastin®/bevacizumab: VEGF-blocking antibody (Genentech)”, for which the clinical response entry in data set [5] is “most patients showing transient responses followed by inevitable resistance”.

The values are drawn from patent US20190105340A1, “METHODS AND COMPOSITIONS FOR TARGETING VASCULAR MIMICRY” (New York Genome Center, Inc., priority 2017, published 2019).
